Reference: patent US20150105252A1, “SUBSTITUTED PYRAZOLES AS HERBICIDES” (E I DU PONT DE NEMOURS AND COMPANY, priority 2013, published 2015)

Assays:
barnyardgrass [1] = assay: Test A preemergence; type: in vivo, Echinochloa crus-galli; conditions: preemergence
Procedure, shortened: (§1)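 Scoring was visual, on a scale where 100 means complete control and 0 means no effect, comparing treated with untreated plants around 10 days post-application. Compounds in surfactant-containing non-phytotoxic solvent were sprayed onto soil preemergence or onto one- to two-leaf seedlings (2–10 cm) postemergence.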

crabgrass, large [2] = assay: Test A preemergence; type: in vivo, Digitaria sanguinalis; conditions: preemergence; for Crabgrass, Large plant response rating (0 to 100 scale): 125 g ai/ha, visual injury approx. 10 days after treatment; for Crabgrass, Large plant response rating: 500 g ai/ha, visual injury after approx. 10 days, 0 to 100 scale (0 no effect, 100 complete control)
Procedure, shortened: as §1

foxtail, giant [3] = assay: Test A preemergence; type: in vivo, Setaria faberii; conditions: preemergence; for Foxtail, Giant plant response rating (0 to 100 scale): 125 g ai/ha, visual injury approx. 10 days after treatment; for Foxtail, Giant plant response rating: 500 g ai/ha, visual injury after approx. 10 days, 0 to 100 scale (0 no effect, 100 complete control)
Procedure, shortened: as §1

morningglory [4] = assay: Test A preemergence; type: in vivo, Ipomoea spp.; conditions: preemergence; for Morningglory plant response rating (0 to 100 scale): 125 g ai/ha, visual injury approx. 10 days after treatment; for Morningglory plant response rating: 500 g ai/ha, visual injury after approx. 10 days, 0 to 100 scale (0 no effect, 100 complete control)
Procedure, shortened: as §1

pigweed [5] = assay: Test A preemergence; type: in vivo, Amaranthus retroflexus; conditions: preemergence; for Pigweed plant response rating (0 to 100 scale): 125 g ai/ha, visual injury approx. 10 days after treatment; for Pigweed plant response rating: 500 g ai/ha, visual injury after approx. 10 days, 0 to 100 scale (0 no effect, 100 complete control)
Procedure, shortened: as §1

velvetleaf [6] = assay: Test A preemergence; type: in vivo, Abutilon theophrasti; conditions: preemergence; for Velvetleaf plant response rating (0 to 100 scale): 125 g ai/ha, visual injury approx. 10 days after treatment; for Velvetleaf plant response rating: 500 g ai/ha, visual injury after approx. 10 days, 0 to 100 scale (0 no effect, 100 complete control)
Procedure, shortened: as §1

wheat [7] = assay: Test A preemergence; type: in vivo, Triticum aestivum; conditions: preemergence; for Wheat plant response rating (0 to 100 scale): 125 g ai/ha, visual injury approx. 10 days after treatment; for Wheat plant response rating: 500 g ai/ha, visual injury after approx. 10 days, 0 to 100 scale (0 no effect, 100 complete control)
Procedure, shortened: as §1

corn [8] = assay: Test A preemergence; type: in vivo, Zea mays; conditions: preemergence; for Corn plant response rating (0 to 100 scale): 125 g ai/ha, visual injury approx. 10 days after treatment; for Corn plant response rating: 500 g ai/ha, visual injury after approx. 10 days, 0 to 100 scale (0 no effect, 100 complete control)
Procedure, shortened: as §1

barnyardgrass [9] = assay: Test A postemergence; type: in vivo, Echinochloa crus-galli
Procedure, shortened: as §1

crabgrass, large [10] = assay: Test A postemergence; type: in vivo, Digitaria sanguinalis
Procedure, shortened: as §1

foxtail, giant [11] = assay: Test A postemergence; type: in vivo, Setaria faberii
Procedure, shortened: as §1

morningglory [12] = assay: Test A postemergence; type: in vivo, Ipomoea spp.
Procedure, shortened: as §1

pigweed [13] = assay: Test A postemergence; type: in vivo, Amaranthus retroflexus
Procedure, shortened: as §1

velvetleaf [14] = assay: Test A postemergence; type: in vivo, Abutilon theophrasti
Procedure, shortened: as §1

wheat [15] = assay: Test A postemergence; type: in vivo, Triticum aestivum
Procedure, shortened: as §1

corn [16] = assay: Test A postemergence; type: in vivo, Zea mays
Procedure, shortened: as §1

rice = assay: Test B flood; type: in vivo, Oryza sativa; conditions: 250 g ai/ha, visual rating on 0 to 100 scale (0 no effect, 100 complete control), 13 to 15 days
Procedure, shortened: (§2)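 Paddy-water application: seedlings at 2-leaf stage, flood depth 3 cm maintained for the test duration. Evaluation after 13–15 days in the greenhouse by eye relative to controls; 0–100 scale.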

sedge, umbrella = assay: Test B flood; type: in vivo, Cyperus difformis; conditions: 250 g ai/ha, visual rating on 0 to 100 scale (0 no effect, 100 complete control), 13 to 15 days
Procedure, shortened: as §2

ducksalad = assay: Test B flood; type: in vivo, Heteranthera limosa; conditions: 250 g ai/ha, visual rating on 0 to 100 scale (0 no effect, 100 complete control), 13 to 15 days
Procedure, shortened: as §2

barnyardgrass [17] = assay: Test B flood; type: in vivo, Echinochloa crus-galli; conditions: 250 g ai/ha, visual rating on 0 to 100 scale (0 no effect, 100 complete control), 13 to 15 days
Procedure, shortened: as §2

[18] = 125 g ai/ha, visual injury, 0 to 100 scale, approx. 10 days
[19] = 500 g ai/ha, visual injury after approx. 10 days, 0 to 100 scale (0 no effect, 100 complete control)
[20] = Postemergence, 500 g ai/ha, 0 to 100 scale (0 no effect, 100 complete control)
[21] = postemergence, 125 g ai/ha, about 10 days, visual rating on 0 to 100 scale (0 no effect, 100 complete control)

| SMILES | Barnyardgrass plant response rating (barnyardgrass [1]; [18]) | Barnyardgrass plant response rating (barnyardgrass [1]; [19]) | Crabgrass, Large plant response rating (0 to 100 scale) (crabgrass, large [2]) | Crabgrass, Large plant response rating (crabgrass, large [2]) | Foxtail, Giant plant response rating (0 to 100 scale) (foxtail, giant [3]) | Foxtail, Giant plant response rating (foxtail, giant [3]) | Morningglory plant response rating (0 to 100 scale) (morningglory [4]) | Morningglory plant response rating (morningglory [4]) | Pigweed plant response rating (0 to 100 scale) (pigweed [5]) | Pigweed plant response rating (pigweed [5]) | Velvetleaf plant response rating (0 to 100 scale) (velvetleaf [6]) | Velvetleaf plant response rating (velvetleaf [6]) | Wheat plant response rating (0 to 100 scale) (wheat [7]) | Wheat plant response rating (wheat [7]) | Corn plant response rating (0 to 100 scale) (corn [8]) | Corn plant response rating (corn [8]) | Barnyardgrass plant response rating (barnyardgrass [9]; [20]) | Barnyardgrass plant response rating (barnyardgrass [9]; [21]) | Crabgrass, Large plant response rating (crabgrass, large [10]; [20]) | Crabgrass, Large plant response rating (crabgrass, large [10]; [21]) | further results |
| --- | --- | --- | --- | --- | --- | --- | --- | --- | --- | --- | --- | --- | --- | --- | --- | --- | --- | --- | --- | --- | --- |
| CCCNC(=O)c1cc(Br)n(Cc2cccc(C(F)(F)F)c2)n1 [Compound 159] | 0 | 20 | 10 | 90 | 0 | 30 | 0 | 0 | 10 | 60 | 0 | 0 | 0 | 0 | 0 | 0 | 30 | 0 | 30 | 20 | Foxtail, Giant plant response rating (foxtail, giant [11]; [20]): 30; Foxtail, Giant plant response rating (foxtail, giant [11]; [21]): 20; Morningglory plant response rating (morningglory [12]; [20]): 40; Morningglory plant response rating (morningglory [12]; [21]): 30; Pigweed plant response rating (pigweed [13]; [20]): 60; Pigweed plant response rating (pigweed [13]; [21]): 50; Velvetleaf plant response rating (velvetleaf [14]; [20]): 70; Velvetleaf plant response rating (velvetleaf [14]; [21]): 60; Wheat plant response rating (wheat [15]; [20]): 20; Wheat plant response rating (wheat [15]; [21]): 0; Corn plant response rating (corn [16]; [20]): 20; Corn plant response rating (corn [16]; [21]): 10; Plant response rating, Rice (rice): 0; Plant response rating, Sedge, Umbrella (sedge, umbrella): 0; Plant response rating, Ducksalad (ducksalad): 0; Plant response rating, Barnyardgrass (barnyardgrass [17]): 0 |
| O=C(NCC(F)(F)F)c1cc(Br)n(Cc2cccc(C(F)(F)F)c2)n1 [Compound 161] | 0 | 0 | 10 | 70 | 0 | 20 | 0 | 0 | 10 | 80 | 0 | 0 | 0 | 0 | 0 | 0 | 10 | 10 | 30 | 20 | Foxtail, Giant plant response rating (foxtail, giant [11]; [20]): 20; Foxtail, Giant plant response rating (foxtail, giant [11]; [21]): 10; Morningglory plant response rating (morningglory [12]; [20]): 50; Morningglory plant response rating (morningglory [12]; [21]): 30; Pigweed plant response rating (pigweed [13]; [20]): 70; Pigweed plant response rating (pigweed [13]; [21]): 40; Velvetleaf plant response rating (velvetleaf [14]; [20]): 50; Velvetleaf plant response rating (velvetleaf [14]; [21]): 30; Wheat plant response rating (wheat [15]; [20]): 0; Wheat plant response rating (wheat [15]; [21]): 0; Corn plant response rating (corn [16]; [20]): 10; Corn plant response rating (corn [16]; [21]): 0; Plant response rating, Rice (rice): 0; Plant response rating, Sedge, Umbrella (sedge, umbrella): 0; Plant response rating, Ducksalad (ducksalad): 0; Plant response rating, Barnyardgrass (barnyardgrass [17]): 0 |
| CCCCNC(=O)c1cc(Br)n(Cc2cccc(C(F)(F)F)c2)n1 [Compound 162] | 0 | 0 | 0 | 30 | 0 | 60 | 0 | 0 | 0 | 0 | 0 | 0 | 0 | 0 | 0 | 0 | 20 | 0 | 20 | 10 | Foxtail, Giant plant response rating (foxtail, giant [11]; [20]): 20; Foxtail, Giant plant response rating (foxtail, giant [11]; [21]): 10; Morningglory plant response rating (morningglory [12]; [20]): 40; Morningglory plant response rating (morningglory [12]; [21]): 20; Pigweed plant response rating (pigweed [13]; [20]): 60; Pigweed plant response rating (pigweed [13]; [21]): 40; Velvetleaf plant response rating (velvetleaf [14]; [20]): 40; Velvetleaf plant response rating (velvetleaf [14]; [21]): 0; Wheat plant response rating (wheat [15]; [20]): 0; Wheat plant response rating (wheat [15]; [21]): 0; Corn plant response rating (corn [16]; [20]): 20; Corn plant response rating (corn [16]; [21]): 10; Plant response rating, Rice (rice): 0; Plant response rating, Sedge, Umbrella (sedge, umbrella): 0; Plant response rating, Ducksalad (ducksalad): 0; Plant response rating, Barnyardgrass (barnyardgrass [17]): 0 |
| COCc1cc(C(=O)NC(C)C)nn1Cc1ccnc(C(F)(F)F)c1 [Compound 166] | 50 | 100 | 100 | 100 | 100 | 100 | 100 | 100 | 100 | 100 | 60 | 100 | 10 | 90 | 10 | 90 | 90 | 30 | 80 | 40 | Foxtail, Giant plant response rating (foxtail, giant [11]; [20]): 70; Foxtail, Giant plant response rating (foxtail, giant [11]; [21]): 50; Morningglory plant response rating (morningglory [12]; [20]): 100; Morningglory plant response rating (morningglory [12]; [21]): 100; Pigweed plant response rating (pigweed [13]; [20]): 100; Pigweed plant response rating (pigweed [13]; [21]): 10; Velvetleaf plant response rating (velvetleaf [14]; [20]): 60; Velvetleaf plant response rating (velvetleaf [14]; [21]): 40; Wheat plant response rating (wheat [15]; [20]): 50; Wheat plant response rating (wheat [15]; [21]): 0; Corn plant response rating (corn [16]; [20]): 80; Corn plant response rating (corn [16]; [21]): 30; Plant response rating, Rice (rice): 10; Plant response rating, Sedge, Umbrella (sedge, umbrella): 80; Plant response rating, Ducksalad (ducksalad): 85; Plant response rating, Barnyardgrass (barnyardgrass [17]): 10 |
| COCc1cc(C(=O)NC2CC2)nn1Cc1ccnc(C(F)(F)F)c1 [Compound 167] | 30 | 100 | 80 | 100 | 90 | 100 | 50 | 100 | 100 | 100 | 30 | 100 | 0 | 50 | 0 | 40 | 80 | 20 | 80 | 20 | Foxtail, Giant plant response rating (foxtail, giant [11]; [20]): 90; Foxtail, Giant plant response rating (foxtail, giant [11]; [21]): 40; Morningglory plant response rating (morningglory [12]; [20]): 100; Morningglory plant response rating (morningglory [12]; [21]): 80; Pigweed plant response rating (pigweed [13]; [20]): 100; Pigweed plant response rating (pigweed [13]; [21]): 70; Velvetleaf plant response rating (velvetleaf [14]; [20]): 60; Velvetleaf plant response rating (velvetleaf [14]; [21]): 30; Wheat plant response rating (wheat [15]; [20]): 30; Wheat plant response rating (wheat [15]; [21]): 0; Corn plant response rating (corn [16]; [20]): 70; Corn plant response rating (corn [16]; [21]): 10; Plant response rating, Rice (rice): 20; Plant response rating, Sedge, Umbrella (sedge, umbrella): 70; Plant response rating, Ducksalad (ducksalad): 80; Plant response rating, Barnyardgrass (barnyardgrass [17]): 20 |
